Target: SphK1 (Homo sapiens, UniProt Q9NYA1)
Assay: SphK1 384-well flashplate kinase assay
Type: biochemical
Conditions: enzyme assay
Procedure: The kinase assay is carried out as a 384-well flashplate assay.
5 nM modified SphK1, 800 nM omega-biotinyl-D-erythro-sphingosine and 1 μM ATP (with 0.3 μCi of ^33P-ATP/well) are incubated in a total volume of 50 μl (25 mM HEPES, 5 mM MgCl2, 1 mM dithiothreitol, 0.01% of Brij35, 0.1% of BSA (fatty acid-free), pH 7.4) without or with test substance (5-10 concentrations) at 30° C. for 120 min. The reaction is terminated using 25 μl of 200 mM EDTA solution, filtered off with suction at room temperature after 30 min, and the cavities are washed 3 times with 100 μl of 0.9% NaCl solution. The non-specific proportion of the kinase reaction (blank) is determined using 0.5 mM NaCl. Radioactivity is measured in topcount. IC50 values are calculated using RS1.

SphK1, sequence (Q9NYA1 whole entry): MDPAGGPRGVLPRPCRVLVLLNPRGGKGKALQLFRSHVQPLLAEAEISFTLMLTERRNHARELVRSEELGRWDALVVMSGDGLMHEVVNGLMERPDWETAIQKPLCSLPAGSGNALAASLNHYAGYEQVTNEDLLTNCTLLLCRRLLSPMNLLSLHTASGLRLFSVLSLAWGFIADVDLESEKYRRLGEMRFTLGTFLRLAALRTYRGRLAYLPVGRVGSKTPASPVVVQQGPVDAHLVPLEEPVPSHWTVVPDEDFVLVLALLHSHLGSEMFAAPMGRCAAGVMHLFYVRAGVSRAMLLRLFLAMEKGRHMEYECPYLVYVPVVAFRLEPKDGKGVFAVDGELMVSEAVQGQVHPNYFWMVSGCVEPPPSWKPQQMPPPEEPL

IC50 [nM]	Structure (SMILES)
10 to 1000	Cc1[nH]cnc1CN1CCC(c2nc(-c3ccc4c(c3)C(C)(C)CCC4(C)C)cs2)CC1 [Compound A72]
1000 to 10000	Cc1cc(-c2csc(C3CCNCC3)n2)c(O)c2c1CCC2 [Compound C10]
1000 to 10000	CC(=O)N1CCC(c2nc(-c3ccc4c(c3)C(C)(C)CCC4(C)C)cs2)CC1 [Compound A80]
1000 to 10000	CC1(C)CCC(C)(C)c2cc(-c3csc(C4CCN(CCCO)CC4)n3)ccc21 [Compound A16]
1000 to 10000	COCCCNC(=O)N1CCC(c2nc(-c3ccc4c(c3)C(C)(C)CCC4(C)C)cs2)CC1 [Compound A79]
10 to 1000	CC1(C)CC(C)(C)c2cc(-c3csc(C4CCN(CCCCCO)CC4)n3)ccc21 [Compound B5]
> 10000	CN1CCCC1CCN1CCC(c2nc(-c3ccc4c(c3)CCCC4)cs2)CC1 (stereo not drawn) [Compound A7]
1000 to 10000	COCCCOC(=O)N1CCC(c2nc(-c3ccc4c(c3)C(C)(C)CCC4(C)C)cs2)CC1 [Compound A46, 3-methoxypropyl 4-[4-(5,5,8,8-tetramethyl-5,6,7,8-tetrahydronaphthalen-2-yl)thiazol-2-yl]piperidine-1-carboxylate]
1000 to 10000	OC[C@@H](O)CN1CCC(c2nc(-c3ccc4c(c3)CCCC4)cs2)CC1 [Compound A14]
1000 to 10000	Cc1noc(C)c1CN1CCC(c2nc(-c3ccc4c(c3)C(C)(C)CCC4(C)C)cs2)CC1 [Compound B12]
10 to 1000	CC1(C)CCC(C)(C)c2cc(-c3csc(C4CCN(CCN)CC4)n3)ccc21 [Compound A81]
10 to 1000	CC1(C)CCC(C)(C)c2cc(-c3csc(C4CCN(Cc5c[nH]cn5)CC4)n3)ccc21 [Compound A75]
10 to 1000	CCN1CCC(c2nc(-c3ccc4c(c3)C(C)(C)CCC4(C)C)cs2)CC1 [Compound A34]
> 10000	CC1(C)CCC(C)(C)c2cc(-c3csc(C4CCN(C(=O)CCN5CCNCC5)CC4)n3)ccc21 [Compound A67]
> 10000	NC(=O)CN1CCC(c2nc(-c3ccc4c(c3)CCCC4)cs2)CC1 [Compound A3]
1000 to 10000	CC1(C)CCC(C)(C)c2cc(-c3csc(C4CCN(C(=O)Cc5ccncc5)CC4)n3)ccc21 [Compound A51, 2-pyridin-4-yl-1-{4-[4-(5,5,8,8-tetramethyl-5,6,7,8-tetrahydronaphthalen-2-yl)thiazol-2-yl]piperidin-1-yl}ethanone]
1000 to 10000	CC1(C)CCC(C)(C)c2cc(-c3csc(C4CCN(C(=O)NCCc5ccccn5)CC4)n3)ccc21 [Compound A43]
1000 to 10000	CC1(C)CCC(C)(C)c2cc(-c3csc(C4CCN(C(=O)[C@H]5C[C@H](O)CN5)CC4)n3)ccc21 [Compound A68]
10 to 1000	CC1(C)CCC(C)(C)c2cc(-c3csc(C4CCN(CCCCN5CCOCC5)CC4)n3)ccc21 [Compound A30]
> 10000	CC1(C)CCC(C)(C)c2cc(-c3csc(C4CCN(C(=O)OCCN5CCCC5)CC4)n3)ccc21 [Compound A49]
1000 to 10000	CC1(C)CCC(C)(C)c2cc(-c3csc(C4CCN(Cc5ccc(CO)o5)CC4)n3)ccc21 [Compound B9]
1000 to 10000	CC1(C)CCC(C)(C)c2cc(-c3csc(C4CCN(CC5CNC(=O)O5)CC4)n3)ccc21 (stereo not drawn) [Compound A27]
1000 to 10000	CC1(C)CCC(C)(C)c2cc(-c3csc(C4CCN(C(=O)OCC5CNCCO5)CC4)n3)ccc21 (stereo not drawn) [Compound B16]
1000 to 10000	CC(CO)(CO)C(=O)N1CCC(c2nc(-c3ccc4c(c3)C(C)(C)CCC4(C)C)cs2)CC1 [Compound A57]
> 10000	CC(CN1CCOCC1)CN1CCC(c2nc(-c3ccc4c(c3)C(C)(C)CCC4(C)C)cs2)CC1 (stereo not drawn) [Compound A1, 4-(2-methyl-3-{4-[4-(5,5,8,8-tetramethyl-5,6,7,8-tetrahydronaphthalen-2-yl)thiazol-2-yl]piperidin-1-yl}propyl)morpholine]
> 10000	CC1(C)CCC(C)(C)c2cc(-c3csc(C4CCN(S(C)(=O)=O)CC4)n3)ccc21 [Compound A83]
10 to 1000	c1cc2c(cc1-c1csc(C3CCNCC3)n1)CCCC2 [Compound C6]

Reference: patent US8436186B2, “Thiazolyl piperidine derivatives” (Merck Patent Gesellschaft mit beschrankter Haftung, priority 2008, dated 2013)
